Conditions: 101.33 kPa, Liquid; for speed of sound: Pulse-echo method; for mass density: Vibrating tube method

CCCCC(=O)[O-].C[NH2+]CCO [2-hydroxy-N-methylethanaminium pentanoate]
Conditions	mass density [kg/m3]	speed of sound [m/s]	viscosity [mPa·s]
278.15 K	1029.68	1616.6	–
278.4 K	1029.52	1615.6	–
278.65 K	1029.35	1614.7	–
278.9 K	1029.18	1613.8	–
279.15 K	1029.01	1612.8	–
279.4 K	1028.85	1611.9	–
279.65 K	1028.68	1611	–
279.9 K	1028.51	1610.1	–
280.15 K	1028.35	1609.1	–
280.4 K	1028.18	1608.2	–
280.65 K	1028.01	1607.3	–
280.9 K	1027.85	1606.4	–
281.15 K	1027.68	1605.5	–
281.4 K	1027.51	1604.6	–
281.65 K	1027.34	1603.7	–
281.9 K	1027.18	1602.8	–
282.15 K	1027.01	1601.9	–
282.4 K	1026.84	1601	–
282.65 K	1026.67	1600.1	–
282.9 K	1026.51	1599.2	–
283.15 K	1026.34	1598.3	–
283.4 K	1026.17	1597.5	–
283.65 K	1026.01	1596.6	–
283.9 K	1025.84	1595.7	–
284.15 K	1025.67	1594.8	–
284.4 K	1025.5	1593.9	–
284.65 K	1025.34	1593.1	–
284.9 K	1025.17	1592.2	–
285.15 K	1025	1591.3	–
285.4 K	1024.83	1590.5	–
285.65 K	1024.66	1589.6	–
285.9 K	1024.5	1588.8	–
286.15 K	1024.33	1587.9	–
286.4 K	1024.16	1587.1	–
286.65 K	1023.99	1586.2	–
286.9 K	1023.83	1585.4	–
287.15 K	1023.66	1584.5	–
287.4 K	1023.49	1583.7	–
287.65 K	1023.32	1582.8	–
287.9 K	1023.15	1582	–
288.15 K	1022.99	1581.2	450.93
288.4 K	1022.82	1580.3	–
288.65 K	1022.65	1579.5	–
288.9 K	1022.48	1578.7	–
289.15 K	1022.31	1577.8	–
289.4 K	1022.14	1577	–
289.65 K	1021.97	1576.2	–
289.9 K	1021.81	1575.3	–
290.15 K	1021.64	1574.5	–
290.4 K	1021.47	1573.7	–
290.65 K	1021.3	1572.9	368.78
290.9 K	1021.13	1572	–
291.15 K	1020.96	1571.2	–
291.4 K	1020.79	1570.4	–
291.65 K	1020.62	1569.6	–
291.9 K	1020.45	1568.8	–
292.15 K	1020.28	1568	–
292.4 K	1020.12	1567.2	–
292.65 K	1019.95	1566.3	–
292.9 K	1019.78	1565.5	–
293.15 K	1019.61	1564.7	319.63
293.4 K	1019.44	1563.9	–
293.65 K	1019.27	1563.1	–
293.9 K	1019.1	1562.3	–
294.15 K	1018.93	1561.5	–
294.4 K	1018.76	1560.7	–
294.65 K	1018.59	1559.9	–
294.9 K	1018.42	1559.1	–
295.15 K	1018.25	1558.3	–
295.4 K	1018.08	1557.5	–
295.65 K	1017.91	1556.7	273.03
295.9 K	1017.74	1555.9	–
296.15 K	1017.57	1555.1	–
296.4 K	1017.4	1554.3	–
296.65 K	1017.23	1553.5	–
296.9 K	1017.06	1552.7	–
297.15 K	1016.89	1551.9	–
297.4 K	1016.72	1551.1	–
297.65 K	1016.55	1550.3	–
297.9 K	1016.38	1549.6	–
298.15 K	1016.21	1548.8	234.44
298.4 K	1016.03	1548	–
298.65 K	1015.86	1547.2	–
298.9 K	1015.69	1546.4	–
299.15 K	1015.52	1545.6	–
299.4 K	1015.35	1544.8	–
299.65 K	1015.19	1544	–
299.9 K	1015.02	1543.3	–
300.15 K	1014.85	1542.5	–
300.4 K	1014.69	1541.7	–
300.65 K	1014.52	1540.9	205.32
300.9 K	1014.36	1540.1	–
301.15 K	1014.19	1539.3	–
301.4 K	1014.03	1538.5	–
301.65 K	1013.86	1537.8	–
301.9 K	1013.7	1537	–
302.15 K	1013.53	1536.2	–
302.4 K	1013.36	1535.4	–
302.65 K	1013.2	1534.6	–
302.9 K	1013.03	1533.9	–
303.15 K	1012.86	1533.1	175.84
303.4 K	1012.7	1532.3	–
303.65 K	1012.53	1531.5	–
303.9 K	1012.37	1530.7	–
304.15 K	1012.2	1530	–
304.4 K	1012.03	1529.2	–
304.65 K	1011.87	1528.4	–
304.91 K	1011.7	1527.6	–
305.15 K	1011.53	1526.8	–
305.4 K	1011.37	1526.1	–
305.65 K	1011.19	1525.3	147.42
305.9 K	1011.03	1524.5	–
306.15 K	1010.86	1523.8	–
306.4 K	1010.69	1523	–
306.65 K	1010.52	1522.2	–
306.9 K	1010.36	1521.5	–
307.15 K	1010.19	1520.7	–
307.4 K	1010.02	1519.9	–
307.65 K	1009.85	1519.1	–
307.9 K	1009.68	1518.4	–
